Test results from US11202836B2, “PSMA targeted conjugate compounds and uses thereof” (CASE WESTERN RESERVE UNIVERSITY, priority 2018, dated 2021).
*1 amine or outer side, *2 acyl side, *3 side chain or, on linkers, in order; H or OH if unused. Where a SMILES comes first, the peptide text is derived from it. Bridges are numbered along the chain shown (N, C = ends). Roman numbers before positions name the chains, in order. [ ]: non-standard residue; d: D form. The star is where a group is joined. Hexanoyl(6-succinimido-3yl) = O=C1CC([*:1])C(=O)N1CCCCCC(=O)[*:2]; Dolaproine = CO[C@@H]([C@@H]1CCCN1)[C@@H](C)C(=O)O; Dil = CC[C@H](C)[C@H](NC)[C@@H](CC(=O)O)OC; γGlu = O=C(O)[C@H](CCC(=O)[*:2])N[*:1]; PABC = O=C(OCc1ccc(N[*:1])cc1)[*:2]; X4 = C[C@@H](N*)[C@@H](O)c1ccccc1; X1 = O=C(C1CCC(CN[*:1])CC1)[*:2]; Cit = NC(=O)NCCC[C@H](N)C(=O)O; NMeV = CN[C@H](C(=O)O)C(C)C; CO = O=C([*:1])[*:2]; Ahx = NCCCCCC(=O)O

What was measured:
PC3flu cells = assay: In vitro cytotoxicity assay (CCK-8, 72 h), PSMA-negative cells; format: cell-based; settings: relative to PSMA-1-VcMMAE-Cy5.5
Procedure: (§1) Cells (1,000/well) were seeded in 96-well culture plates the day before treatment. Cells were incubated with various concentrations of drugs for 72 hours and cell viability evaluated by CCK-8 (Dojindo). The concentration required to reach 50% of cell proliferation was determined (IC50) by GraphPad Prism 3.0.

[1] = as above; format: cell-based; settings: 72 hours, CCK-8; read-out: IC50, cytotoxicity to PC3flu cells
Procedure: as §1

[2] = Maximum tolerated dose (single i.v. dose); format: in vivo, mice
From the text: Mice were monitored daily for 14 days.

[3] = test system: heterotopic PC3pip tumors; assay: Heterotopic PC3pip tumor survival / antitumor study; format: in vivo
From the text: Male athymic nude mice were implanted subcutaneously with 1×10^6 of PC3pip cells under the right dorsum of the mice. When tumor size reached approximately 100 mm^3 (tumor volume=Length×width^2/2), mice received drugs through tail vein injection. […] Animals were weighed and tumor size measured every other day for 90 days. Cures were defined as no tumor present at end of the 90-day study. When tumors became too large or animals were moribund they were euthanized. Five mice were used in each group.

[4] = In vitro cytotoxicity assay (CCK-8, 72 h), PSMA-positive cells; format: cell-based; settings: 72 hours
Procedure: as §1

PC3pip cells = assay: as above; format: cell-based
Procedure: as §1

metastatic PC3pip model = assay: Metastatic PC3pip survival study (intracardiac GFP-PC3pip); format: in vivo, mice; settings: dose not stated
Procedure: Male athymic nude mice were injected into the left ventricle of the heart with 1×10^5 GFP labeled PC3pip cells to generate bone metastasis. One week later mice received 160 nmol/kg PSMA-1-VcMMAE-Cy5.5 or PBS every 4 days with a total of 5 doses and the progression of disease was monitored by GFP imaging. Five mice were used in each group.

orthotopic PC3pip tumors = assay: Orthotopic PC3pip tumor survival study; format: in vivo, mice
Procedure: Surgical orthotopic tumor implantation was performed as previously reported. Tumor growth/size was monitored using Siemens Acuson […] ultrasound scanner. When the tumors were at the appropriate size (5 mm as measured by ultrasound, approximately 2 weeks) animals were given PSMA-1-VcMMAE, PSMA-1-VcMMAE-Cy5.5, or PBS every four days with a total of 5 doses. Tumors were monitored every other day by ultrasound. Each group had five mice.

[5] = 3820 nmol/kg every 4 days, 5 doses

CC[C@H](C)[C@@H]([C@@H](CC(=O)N1CCC[C@H]1[C@H](OC)[C@@H](C)C(=O)N[C@H](C)[C@@H](O)c1ccccc1)OC)N(C)C(=O)[C@@H](NC(=O)[C@H](C(C)C)N(C)C(=O)OCc1ccc(NC(=O)[C@H](CCCNC(N)=O)NC(=O)[C@@H](NC(=O)CCCCCN2C(=O)CC(SC[C@H](NC(=O)[C@H](CCC(=O)O)NC(=O)[C@H](CCC(=O)O)NC(=O)[C@H](CCC(=O)O)NC(=O)CCCCCNC(=O)C3CCC(CNC(=O)CC[C@H](NC(=O)N[C@@H](CCC(=O)O)C(=O)O)C(=O)O)CC3)C(=O)NCCCCCC(=O)N[C@@H](CCCCN)C(N)=O)C2=O)C(C)C)cc1)C(C)C (stereo partly shown) [PSMA-1-VcMMAE] (I: {Glu-CO-γGlu}-[X1][Ahx]EEEC[Ahx]K-NH2 / II: V[Cit][PABC][NMeV]V[Dil][Dolaproine]-X4; linker I:6-II:N via Hexanoyl(6-succinimido-3yl); C-terminus assumed)
increase of IC50 against PC3flu cells on removal of the Cy5.5 moiety (PC3flu cells): 11.1 fold
IC50 [1]: 222 nM
MTD ([2]; mouse, in vivo, iv, single dose i.v., tumor-free athymic nude mice, 14 days): 7.64 µmol/kg
MTD relative to MMAE ([2]; single dose): more than 10 fold
inhibition of PC3pip tumor growth compared with PC3flu tumor growth ([3]; 955 nmol/kg): significantly more effective
animal survival [3, 5]: all 5 mice survived the 90-day experimental time
cure (tumor free at end of 90-day study) [3, 5]: 60%
tumor growth when given every 7 days ([3]; every 7 days, model not stated): greatly inhibited tumor growth
lowest dose effectively inhibiting tumor growth ([3]; mouse, in vivo): 191 nmol/kg
body weight loss ([3]; up to highest dose tested, 3820 nmol/kg): No body weight loss
IC50 ([4]; CCK-8, read-out: IC50, cytotoxicity to PC3pip cells): 4.64 nM
selectivity ratio ([4]; PC3flu IC50 over PC3pip IC50, read-out: selectivity, differential cytotoxicity PC3pip vs PC3flu cells): 48
potency to kill PC3pip cells in the presence of PSMA-1 ligand (PC3pip cells; 10 μM of PSMA-1): reduced to the same potency to kill PC3flu cells
ratio of IC50's between PC3pip and PC3flu cells (PC3pip cells; 72 hours): 48.2
effect of protease inhibitor E64 on cell killing potency (PC3pip cells; co-incubation with 50 μM E64): susceptible to E64 protease inhibition
increase of IC50 against PC3pip cells on removal of the Cy5.5 moiety (PC3pip cells; relative to PSMA-1-VcMMAE-Cy5.5): 6.2 fold
survival and body weight (metastatic PC3pip model): prolong animal survival time with no body weight loss
tumor free mice (orthotopic PC3pip tumors; 3860 nmol/kg, five mice per group): 1 mouse
tumor growth and survival (orthotopic PC3pip tumors; every four days, 5 doses, significant at 1910 and 3860 nmol/kg): Inhibition of tumor growth and extension of animal survival time
